Measured values reported in patent publication US20230138851A1, “NOVEL ALKYNE DERIVATIVES” (CARNA BIOSCIENCES, INC., priority 2020, published 2023).

Columns and labels:
Assay type in all cases: biochemical
DYRK1A = target: T1, DYRK1A (Homo sapiens, UniProt Q13627); assay: Inhibition test on activity of DYRK family, mobility shift assay (MSA), DYRK1A; settings: ATP 100 μM, FITC-labeled DYRKtide peptide substrate, room temperature 1 hour; for IC50: read-out: Inhibitory Activity 1a (IC50 against DYRK1A)
T1 construct: purchased Carna Biosciences, Inc. 04-130
Protocol: (§1) [Inhibition Test on Activity of DYRK Family (DYRK1A, DYRK1B, DYRK2, and […])]
(§2) (Method for Measuring Kinase Activity)
(§3) The kinase activity was measured by mobility shift assay (MSA) method using QuickScout Screening Assist™ MSA (commercially available kit manufactured by Carna Biosciences, Inc.). The substrate of the kinase reaction used was an FITC-labeled DYRKtide peptide included in the kit. An assay buffer [20 mM HEPES, 0.01% Triton X-100™, 2 mM dithiothreitol, pH 7.5] was used to create a substrate mixture solution with a substrate (4 μM), MgCl2 (20 mM), and ATP (DYRK1A: 100 μM; DYRK1B: 200 μM; DYRK2: 40 μM; and DYRK3: 20 μM). In addition, kinases (DYRK1A: manufactured by Carna Biosciences, Inc., Cat. No. 04-130; DYRK1B: manufactured by Carna Biosciences, Inc., Cat. No. 04-131; DYRK2; manufactured by Carna Biosciences, Inc., Cat. No. 04-132; and DYRK3; manufactured by Carna Biosciences, Inc., Cat. No. 04-133) were diluted with the assay buffer to prepare enzyme solutions (DYRK1A: 0.2 ng/μL; DYRK1B: 0.08 ng/μL; DYRK2: 0.04 ng/μL; and DYRK3: 0.25 ng/μL). The 10 mM solution of the test compound in DMSO was further diluted with DMSO to 10 levels of the concentration (0.00003 mM, 0.0001 mM, 0.0003 mM, 0.001 mM, 0.003 mM, 0.01 mM, 0.03 mM, 0.1 mM, 0.3 mM, and 1 mM), each of which was subjected to 25-fold dilution with the assay buffer to obtain a drug solution (4% DMSO solution). 5 μL of the drug solution or a control solution (4% DMSO-assay buffer), 5 μL of the substrate mixture solution, and 10 μL of the enzyme solution were mixed in the wells of a polypropylene 384-well plate and allowed to react at room temperature for 1 hour, and then the reaction was quenched by adding 60 μL of the termination buffer included in the kit. Subsequently, the quantities of the substrates (S) and the phosphorylated substrate (P) in the reaction solution were measured using LabChip EZ Reader II system (manufactured by Caliper Life Sciences) according to the protocol of the assay kit.
(§4) (Method for Evaluating Inhibitory Activity)
(§5) The heights of the peaks of the “substrate” and the “phosphorylated substrate” were expressed as S and P, respectively, and a blank containing the assay buffer instead of the enzyme solution was also measured.
(§6) The inhibition rate (%) of the test compound was calculated according to the following equation:
(§7) Inhibition rate (%)=(1−(C−A)/(B−A))×100
(§8) wherein, A, B, and C represent P/(P+S) of the blank well, P/(P+S) of the control solution well, and P/(P+S) of the compound-containing well, respectively.
(§9) The IC50 value was calculated via a regression analysis of the inhibition rate and the test compound concentration (logarithmic value).
(§10) The inhibiting activities of representative compounds of the present invention are shown against DYRK1A, DYRK1B, DYRK2, and DYRK3 in Tables 7 and 8. The kinase activity inhibitory effect was indicated with the mark *** at an IC50 value of less than 0.01 μM; the mark ** at 0.01 μM or more and less than 0.1 μM; the mark * at 0.1 μM or more and less than 1 μM; and the mark — at 1 μM or more (N.D. indicates not measured).

DYRK2 = target: T2, DYRK2 (Homo sapiens, UniProt Q92630); assay: Inhibition test on activity of DYRK family, mobility shift assay (MSA), DYRK2; settings: ATP 40 μM, FITC-labeled DYRKtide peptide substrate, room temperature 1 hour; for IC50: read-out: Inhibitory Activity 2 (IC50 against DYRK2)
T2 construct: purchased Carna Biosciences, Inc. 04-132
T2 sequence (Q92630 1-601): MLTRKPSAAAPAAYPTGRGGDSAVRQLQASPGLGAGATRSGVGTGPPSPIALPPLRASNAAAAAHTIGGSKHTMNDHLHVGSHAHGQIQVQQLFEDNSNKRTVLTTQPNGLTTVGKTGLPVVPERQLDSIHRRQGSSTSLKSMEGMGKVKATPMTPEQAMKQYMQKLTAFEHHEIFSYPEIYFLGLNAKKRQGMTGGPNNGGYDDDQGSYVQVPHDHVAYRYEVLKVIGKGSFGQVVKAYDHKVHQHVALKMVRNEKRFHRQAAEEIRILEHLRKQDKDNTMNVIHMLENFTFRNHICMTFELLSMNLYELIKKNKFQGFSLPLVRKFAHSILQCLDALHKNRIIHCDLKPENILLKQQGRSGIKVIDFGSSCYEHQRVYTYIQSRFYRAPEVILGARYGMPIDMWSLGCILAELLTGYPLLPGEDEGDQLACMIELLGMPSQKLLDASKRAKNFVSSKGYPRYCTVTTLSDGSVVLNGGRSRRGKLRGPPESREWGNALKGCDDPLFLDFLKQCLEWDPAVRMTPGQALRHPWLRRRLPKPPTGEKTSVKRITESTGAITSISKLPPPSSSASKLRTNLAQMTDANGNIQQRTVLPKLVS
Protocol: as §1, §2, §3, §4, §5, §6, §7, §8, §9, §10

DYRK3 = target: T3, DYRK3 (Homo sapiens, UniProt O43781); assay: Inhibition test on activity of DYRK family, mobility shift assay (MSA), DYRK3; settings: ATP 20 μM, FITC-labeled DYRKtide peptide substrate, room temperature 1 hour; for IC50: read-out: Inhibitory Activity 3 (IC50 against DYRK3)
T3 construct: purchased Carna Biosciences, Inc. 04-133
T3 sequence (O43781 1-588): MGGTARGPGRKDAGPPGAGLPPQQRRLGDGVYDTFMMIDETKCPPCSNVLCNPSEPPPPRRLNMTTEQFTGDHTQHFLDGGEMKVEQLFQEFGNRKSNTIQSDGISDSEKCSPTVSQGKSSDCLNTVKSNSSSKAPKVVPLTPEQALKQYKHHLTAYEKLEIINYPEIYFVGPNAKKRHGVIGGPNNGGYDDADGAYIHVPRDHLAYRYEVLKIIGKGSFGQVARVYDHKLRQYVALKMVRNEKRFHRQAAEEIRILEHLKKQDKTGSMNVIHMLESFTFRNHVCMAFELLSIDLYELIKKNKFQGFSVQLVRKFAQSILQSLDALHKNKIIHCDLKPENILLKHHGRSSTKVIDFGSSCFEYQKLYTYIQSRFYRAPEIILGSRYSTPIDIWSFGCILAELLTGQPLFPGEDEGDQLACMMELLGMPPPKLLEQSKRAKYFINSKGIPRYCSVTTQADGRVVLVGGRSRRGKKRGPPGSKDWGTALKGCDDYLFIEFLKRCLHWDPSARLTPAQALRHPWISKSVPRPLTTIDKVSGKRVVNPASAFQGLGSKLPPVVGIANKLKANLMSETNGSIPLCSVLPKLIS
Protocol: as §1, §2, §3, §4, §5, §6, §7, §8, §9, §10

Structure (SMILES)	IC50 (DYRK1A) [µM]	IC50 (DYRK2) [µM]	IC50 (DYRK3) [µM]	Inhibitory Activity 1a (IC50 against DYRK1A) (DYRK1A)	Inhibitory Activity 3 (IC50 against DYRK3) (DYRK3)	Inhibitory Activity 2 (IC50 against DYRK2) (DYRK2)
CC#CC1CNC(=O)N1c1nc2c3c(ccc2s1)OCCN3CCN1CCCCC1 (racemic) [Example 43, (RS)-1-{9-[2-(piperidin-1-yl)ethyl]-8,9-dihydro-7H-thiazolo[4′,5′:3,4]benz[1,2-b][1,4]oxazin-2-yl}-5-(prop-1-yn-1-yl)imidazolidin-2-one]	0.1 to 1	≥ 1	≥ 1			
CC#CC1CNC(=O)N1c1nc2c3c(ccc2s1)OCCN3CCN1CCN(C)CC1 (racemic) [Example 44, (RS)-1-{9-[2-(4-methylpiperazin-1-yl)ethyl]-8,9-dihydro-7H-thiazolo[4′,5′:3,4]benz[1,2-b][1,4]oxazin-2-yl}-5-(prop-1-yn-1-yl)imidazolidin-2-one]	≥ 1	≥ 1	≥ 1			
CC#CC1CNC(=O)N1c1nc2c3c(ccc2s1)OCCN3C1CC1 (racemic) [Example 45, (RS)-1-(9-cyclopropyl-8,9-dihydro-7H-thiazolo[4′,5′:3,4]benz[1,2-b][1,4]oxazin-2-yl)-5-(prop-1-yn-1-yl)imidazolidin-2-one]		0.1 to 1	0.1 to 1	* *		
CC#CC1CNC(=O)N1c1nc2c3c(ccc2s1)OCC(=O)N3C (racemic) [Example 46, (RS)-9-methyl-2-[2-oxo-5-(prop-1-yn-1-yl)imidazolidin-1-yl]-7H-thiazolo[4′,5′:3,4]benz[1,2-b][1,4]oxazin-8(9H)-one]		≥ 1	0.1 to 1	* *		
CC#CC1CNC(=O)N1c1nc2c3c(ccc2s1)OCCN3S(C)(=O)=O (racemic) [Example 47, (RS)-1-[9-(methylsulfonyl)-8,9-dihydro-7H-thiazolo[4′,5′:3,4]benz[1,2-b][1,4]oxazin-2-yl]-5-(prop-1-yn-1-yl)imidazolidin-2-one]		≥ 1	0.1 to 1	* *		
CC#CC1CNC(=O)N1c1nc2c(ccc3[nH]ncc32)s1 (racemic) [Example 50, (RS)-5-(prop-1-yn-1-yl)-1-(6H-thiazolo[4,5-e]indazol-2-yl)imidazolidin-2-one]		≥ 1	≥ 1	* *		
CC#CC1CNC(=O)N1c1nc2c(ccc3nn(C)cc32)s1 (racemic) [Example 51, (RS)-1-(7-methyl-7H-thiazolo[4,5-e]indazol-2-yl)-5-(prop-1-yn-1-yl)imidazolidin-2-one]		0.1 to 1	0.1 to 1	* * *		
CC#CC1N(c2nc3c4c(ccc3s2)OCC4)C(=O)NC1(C)C (racemic) [Example 54, (RS)-1-(7,8-dihydrobenzofuro[4,5-d]thiazol-2-yl)-4,4-dimethyl-5-(prop-1-yn-1-yl)imidazolidin-2-one]		≥ 1	≥ 1	* *		
CC#CC1CNC(=O)N1c1nc2c3c(ccc2s1)OCC3 (single isomer, unassigned) [Example 9, 1-(7,8-dihydrobenzofuro[4,5-d]thiazol-2-yl)-5-(prop-1-yn-1-yl)imidazolidin-2-one]				* * *	* *	* *

Results, then the compound that gave them:

IC50 (DYRK1A) [µM]	IC50 (DYRK2) [µM]	IC50 (DYRK3) [µM]	Inhibitory Activity 1a (IC50 against DYRK1A) (DYRK1A)	Inhibitory Activity 3 (IC50 against DYRK3) (DYRK3)	Inhibitory Activity 2 (IC50 against DYRK2) (DYRK2)	Structure (SMILES)
	0.1 to 1	0.1 to 1	* * *			CC#CC1CNC(=O)N1c1nc2c3c(ccc2s1)OCCO3 (racemic) [Example 55, (RS)-1-(7,8-dihydro-[1,4]dioxyno[2′,3′:5,6]benzo[1,2-d]thiazol-2-yl)-5-(prop-1-yn-1-yl)imidazolidin-2-one]
	0.1 to 1		* * *	* *		CC#C[C@@H]1[C@H](CO)NC(=O)N1c1nc2c3c(ccc2s1)OCC3 (relative stereo) [Example 60, cis-1-(7,8-dihydrobenzofuro[4,5-d]thiazol-2-yl)-4-(hydroxymethyl)-5-(prop-1-yn-1-yl)imidazolidin-2-one]
	0.1 to 1	0.1 to 1	* * *			CC#C[C@H]1[C@H](CO)NC(=O)N1c1nc2c3c(ccc2s1)OCC3 (relative stereo) [Example 61, trans-1-(7,8-dihydrobenzofuro[4,5-d]thiazol-2-yl)-4-(hydroxymethyl)-5-(prop-1-yn-1-yl)imidazolidin-2-one]
	0.1 to 1	0.1 to 1	* * *			CC#C[C@@H]1[C@H](CO)NC(=O)N1c1nc2c3c(ccc2s1)OCCO3 (relative stereo) [Example 64, cis-1-(7,8-dihydro-[1,4]dioxino[2′,3′:5,6]benz[1,2-d]thiazol-2-yl)-4-(hydroxymethyl)-5-(prop-1-yn-1-yl)imidazolidin-2-one]
	0.1 to 1	0.1 to 1	* * *			CC#C[C@@H]1[C@H](CC)NC(=O)N1c1nc2c3c(ccc2s1)OCC3 (relative stereo) [Example 73, cis-1-(7,8-dihydrobenzofuro[4,5-d]thiazol-2-yl)-4-ethyl-5-(prop-1-yn-1-yl)imidazolidin-2-one]
< 0.01	≥ 1	0.1 to 1				CC#C[C@@H]1[C@H](CF)NC(=O)N1c1nc2c3c(ccc2s1)OCC3 (relative stereo) [Example 80, cis-1-(7,8-dihydrobenzofuro[4,5-d]thiazol-2-yl)-4-(fluoromethyl)-5-(prop-1-yn-1-yl)imidazolidin-2-one]
